From patent publication US20230151003A1, “COMPOUNDS AND METHODS OF USE” (Exelixis, Inc., priority 2020, published 2023)
Where a name gives a salt, the structure may show the parent alone.

What follows are compounds tested against T1, Mer (Homo sapiens, UniProt Q12866) (assay: Mer autophosphorylation ELISA in transient transfected 293A cells). Details: Table 3 Cellular Activities; MERTK-transfected 293A cells, phospho-Mer ELISA.
T1 construct: host or cells: 293A cells (Thermo Fisher #R70507)
T1 sequence (Q12866 21-999): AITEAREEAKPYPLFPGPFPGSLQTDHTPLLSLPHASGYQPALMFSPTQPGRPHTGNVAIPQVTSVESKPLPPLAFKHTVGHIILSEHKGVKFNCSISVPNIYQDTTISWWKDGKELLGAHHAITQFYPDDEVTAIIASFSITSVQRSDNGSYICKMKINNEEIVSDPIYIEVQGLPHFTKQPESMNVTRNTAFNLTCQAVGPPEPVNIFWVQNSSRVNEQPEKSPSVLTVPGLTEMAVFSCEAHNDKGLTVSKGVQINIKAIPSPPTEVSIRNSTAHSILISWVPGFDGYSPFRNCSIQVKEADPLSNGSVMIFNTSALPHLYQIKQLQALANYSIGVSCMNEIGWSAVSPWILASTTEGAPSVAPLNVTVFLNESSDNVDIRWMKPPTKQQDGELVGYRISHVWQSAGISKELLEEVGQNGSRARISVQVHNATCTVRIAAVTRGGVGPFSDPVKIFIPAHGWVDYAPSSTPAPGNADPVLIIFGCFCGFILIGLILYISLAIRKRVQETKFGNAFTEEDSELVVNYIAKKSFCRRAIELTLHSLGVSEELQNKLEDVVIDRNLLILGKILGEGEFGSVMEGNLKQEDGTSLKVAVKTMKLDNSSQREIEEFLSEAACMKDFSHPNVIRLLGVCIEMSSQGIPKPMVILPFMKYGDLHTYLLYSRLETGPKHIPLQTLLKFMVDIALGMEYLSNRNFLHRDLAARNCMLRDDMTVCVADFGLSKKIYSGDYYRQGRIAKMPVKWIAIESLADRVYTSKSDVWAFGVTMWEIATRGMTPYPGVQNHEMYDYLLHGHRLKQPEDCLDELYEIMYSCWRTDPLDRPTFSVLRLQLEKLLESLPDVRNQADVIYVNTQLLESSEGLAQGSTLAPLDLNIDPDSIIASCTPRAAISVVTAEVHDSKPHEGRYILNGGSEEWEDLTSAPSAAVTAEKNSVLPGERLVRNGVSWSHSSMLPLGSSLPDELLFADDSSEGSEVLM
Assay type: cell-based
How it was run: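 293A cells transiently transfected with human MERTK DNA, replated after 24 h, then treated 1 h with 8-point compound dilutions in serum-free medium (0.3% DMSO). Lysates assayed by phospho-Mer sandwich ELISA against phospho-Mer standard; DMSO = 100%, reference inhibitor = 0% activity; IC50 by 4-parameter logistic fit.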
Compound `COc1cc2nccc(Oc3ccc(NC(=O)c4ccc(C)n(-c5ncc(F)cc5C)c4=O)cc3F)c2nc1OC` [Compound 51, N-[4-[(6,7-Dimethoxy-1,5-naphthyridin-4-yl)oxy]-3-fluorophenyl]-1-(5-fluoro-3-methylpyridin-2-yl)-6-methyl-2-oxopyridine-3-carboxamide] has an IC50 of no more than 100 nM. `COc1ccc2nccc(Oc3ccc(NC(=O)c4ccc(C)n(-c5ncc(F)cc5C)c4=O)cc3F)c2n1` [Compound 53, N-[3-Fluoro-4-[(6-methoxy-1,5-naphthyridin-4-yl)oxy]phenyl]-1-(5-fluoro-3-methylpyridin-2-yl)-6-methyl-2-oxopyridine-3-carboxamide] was tested, and the IC50 was no more than 100 nM. Work on `COc1cc2nccc(Oc3ccc(NC(=O)c4c(C)ncc(-c5ccccn5)c4O)cc3F)c2nc1OC` [Compound 69, N-[4-[(6,7-Dimethoxy-1,5-naphthyridin-4-yl)oxy]-3-fluorophenyl]-4-hydroxy-2-methyl-5-pyridin-2-ylpyridine-3-carboxamide] yielded an IC50 of no more than 100 nM. With `COc1cc2nccc(Oc3ccc(NC(=O)c4c5n(cc(-c6cccs6)c4=O)CCOC5)cc3)c2nc1OC` [Compound 299, N-[4-[(6,7-Dimethoxy-1,5-naphthyridin-4-yl)oxy]phenyl]-8-oxo-7-thiophen-2-yl-3,4-dihydro-1H-pyrido[2,1-c][1,4]oxazine-9-carboxamide] the IC50 was no more than 100 nM. Work on `COc1cc2nccc(Oc3ccc(NC(=O)c4ccc(C)n(-c5ccncc5F)c4=O)cc3F)c2nc1OC` [Compound 220, N-[4-[(6,7-Dimethoxy-1,5-naphthyridin-4-yl)oxy]-3-fluorophenyl]-1-(3-fluoropyridin-4-yl)-6-methyl-2-oxopyridine-3-carboxamide] yielded an IC50 of no more than 100 nM. For `COc1cc2nccc(Oc3ccc(NC(=O)c4cnc(C)c(-c5ccco5)c4O)cc3F)c2cc1OC` [Compound 259, N-[4-(6,7-Dimethoxyquinolin-4-yl)oxy-3-fluorophenyl]-5-(furan-2-yl)-4-hydroxy-6-methylpyridine-3-carboxamide], the IC50 was no more than 100 nM. `COc1cc2nccc(Oc3ccc(NC(=O)c4ncc(C)n(-c5ccc(F)cn5)c4=O)cc3F)c2nc1OC` [Compound 219, N-[4-[(6,7-Dimethoxy-1,5-naphthyridin-4-yl)oxy]-3-fluorophenyl]-4-(5-fluoropyridin-2-yl)-5-methyl-3-oxopyrazine-2-carboxamide] was tested, and the IC50 was no more than 100 nM. In the case of `COc1cc2nccc(Oc3ccc(NC(=O)c4c(C)ncc(-c5ncc(F)cc5C)c4O)cc3F)c2nc1OC` [Compound 200, N-[4-[(6,7-Dimethoxy-1,5-naphthyridin-4-yl)oxy]-3-fluorophenyl]-5-(5-fluoro-3-methylpyridin-2-yl)-4-hydroxy-2-methylpyridine-3-carboxamide], the IC50 is reported as no more than 100 nM. With `COc1cnc2c(Oc3ccc(NC(=O)c4cc(C(C)=O)c(C)n(-c5ccco5)c4=O)cc3F)ccnc2c1` [Compound 238, 5-Acetyl-N-[3-fluoro-4-[(7-methoxy-1,5-naphthyridin-4-yl)oxy]phenyl]-1-(furan-2-yl)-6-methyl-2-oxopyridine-3-carboxamide] the IC50 was 300 to 1000 nM. Work on `COc1cc2nccc(Oc3ccc(NC(=O)c4c(C)n(C)cc(-c5ccc(F)cn5)c4=O)cc3)c2nc1OC` [Compound 72, N-[4-[(6,7-Dimethoxy-1,5-naphthyridin-4-yl)oxy]phenyl]-5-(5-fluoropyridin-2-yl)-1,2-dimethyl-4-oxopyridine-3-carboxamide] yielded an IC50 of no more than 100 nM. `COc1cc2nccc(Oc3ccc(NC(=O)c4c5n(cc(-c6ccoc6)c4=O)CCOC5)cc3)c2nc1OC` [Compound 310, N-[4-[(6,7-Dimethoxy-1,5-naphthyridin-4-yl)oxy]phenyl]-7-(furan-3-yl)-8-oxo-3,4-dihydro-1H-pyrido[2,1-c][1,4]oxazine-9-carboxamide] was tested, and the IC50 was no more than 100 nM. `COc1cc2nccc(Oc3ccc(NC(=O)c4ccc(C)n(-c5ccc(F)c(C)n5)c4=O)cc3F)c2nc1OC` [Compound 227, N-[4-[(6,7-Dimethoxy-1,5-naphthyridin-4-yl)oxy]-3-fluorophenyl]-1-(5-fluoro-6-methylpyridin-2-yl)-6-methyl-2-oxopyridine-3-carboxamide hydrochloride] was tested, and the IC50 was no more than 100 nM. Work on `COc1cc2nccc(Oc3ccc(NC(=O)c4c(C)ccn(-c5ccc(F)cn5)c4=O)cc3F)c2nc1OC` [Compound 41, N-[4-[(6,7-Dimethoxy-1,5-naphthyridin-4-yl)oxy]-3-fluorophenyl]-1-(5-fluoropyridin-2-yl)-4-methyl-2-oxopyridine-3-carboxamide] yielded an IC50 of no more than 100 nM. `COc1cnc2c(Oc3ccc(NC(=O)c4ccc(C)n(-c5ncc(F)cc5C)c4=O)cc3F)ccnc2c1` [Compound 52, N-[3-Fluoro-4-[(7-methoxy-1,5-naphthyridin-4-yl)oxy]phenyl]-1-(5-fluoro-3-methylpyridin-2-yl)-6-methyl-2-oxopyridine-3-carboxamide] showed an IC50 of no more than 100 nM. `COc1cc2nccc(Oc3ccc(NC(=O)c4cc(C(C)=O)c(C)n(-c5ccco5)c4=O)cc3)c2nc1OC` [Compound 237, 5-Acetyl-N-[4-[(6,7-dimethoxy-1,5-naphthyridin-4-yl)oxy]phenyl]-1-(furan-2-yl)-6-methyl-2-oxopyridine-3-carboxamide] was tested, and the IC50 was no more than 100 nM. `COc1cc2nccc(Oc3ccc(NC(=O)c4cnc(C)c(-c5ccco5)n4)cc3F)c2nc1OC` [Compound 269, N-[4-[(6,7-Dimethoxy-1,5-naphthyridin-4-yl)oxy]-3-fluorophenyl]-6-(furan-2-yl)-5-methylpyrazine-2-carboxamide] was tested, and the IC50 was no more than 100 nM. `COc1cc2nccc(Oc3ccc(NC(=O)c4c5n(cc(-c6ccco6)c4=O)CCOC5)cc3)c2nc1OC` [Compound 298, N-[4-[(6,7-Dimethoxy-1,5-naphthyridin-4-yl)oxy]phenyl]-7-(furan-2-yl)-8-oxo-3,4-dihydro-1H-pyrido[2,1-c][1,4]oxazine-9-carboxamide] showed an IC50 of no more than 100 nM. `COc1ccc2nccc(Oc3ccc(NC(=O)c4ccc(C)n(-c5ccc(F)cn5)c4=O)cc3F)c2n1` [Compound 47, N-[3-Fluoro-4-[(6-methoxy-1,5-naphthyridin-4-yl)oxy]phenyl]-1-(5-fluoropyridin-2-yl)-6-methyl-2-oxopyridine-3-carboxamide] showed an IC50 of no more than 100 nM. For `Cc1ccc(C(=O)Nc2ccc(Oc3ccnc4cnc(Cl)cc34)c(F)c2)c(=O)n1-c1ccc(F)cn1` [Compound 54A, N-[4-[(6-Chloro-1,7-naphthyridin-4-yl)oxy]-3-fluorophenyl]-1-(5-fluoropyridin-2-yl)-6-methyl-2-oxopyridine-3-carboxamide], the IC50 was no more than 100 nM. In the case of `COc1cc(-n2c(C)ccc(C(=O)Nc3ccc(Oc4ccnc5cc(OC)c(OC)nc45)c(F)c3)c2=O)ccn1` [Compound 226, N-[4-[(6,7-Dimethoxy-1,5-naphthyridin-4-yl)oxy]-3-fluorophenyl]-1-(2-methoxypyridin-4-yl)-6-methyl-2-oxopyridine-3-carboxamide], the IC50 is reported as no more than 100 nM. `COc1cc2nccc(Oc3ccc(NC(=O)c4cn(CCF)c(C)c(-c5cccs5)c4=O)cc3F)c2nc1OC` [Compound 327, N-[4-[(6,7-Dimethoxy-1,5-naphthyridin-4-yl)oxy]-3-fluorophenyl]-1-(2-fluoroethyl)-6-methyl-4-oxo-5-thiophen-2-ylpyridine-3-carboxamide] was tested, and the IC50 was no more than 100 nM. `COc1cc2nccc(Oc3ccc(NC(=O)c4c5n(cc(-c6ccc(C)s6)c4=O)CCOC5)cc3)c2nc1OC` [Compound 305, N-[4-[(6,7-Dimethoxy-1,5-naphthyridin-4-yl)oxy]phenyl]-7-(5-methylthiophen-2-yl)-8-oxo-3,4-dihydro-1H-pyrido[2,1-c][1,4]oxazine-9-carboxamide] showed an IC50 of no more than 100 nM. Compound `COc1cc2nccc(Oc3ccc(NC(=O)c4c5n(cc(-c6cccs6)c4=O)CCOC5)cc3F)c2nc1OC` [Compound 309, N-[4-[(6,7-Dimethoxy-1,5-naphthyridin-4-yl)oxy]-3-fluorophenyl]-8-oxo-7-thiophen-2-yl-3,4-dihydro-1H-pyrido[2,1-c][1,4]oxazine-9-carboxamide] has an IC50 of no more than 100 nM. Compound `COc1cc2nccc(Oc3ccc(NC(=O)c4ccc(C)n(-c5ccc(F)cn5)c4=O)cc3)c2nc1OC` [Compound 44, N-[4-[(6,7-Dimethoxy-1,5-naphthyridin-4-yl)oxy]phenyl]-1-(5-fluoropyridin-2-yl)-6-methyl-2-oxopyridine-3-carboxamide] has an IC50 of no more than 100 nM. For `COc1cc2nccc(Oc3ccc(NC(=O)c4cccn(-c5cc[n+]([O-])cc5)c4=O)cc3F)c2nc1OC` [Compound 247, N-[4-[(6,7-Dimethoxy-1,5-naphthyridin-4-yl)oxy]-3-fluorophenyl]-1-(1-oxidopyridin-1-ium-4-yl)-2-oxopyridine-3-carboxamide hydrochloride], the IC50 was no more than 100 nM.
